Experimental data: PubChem BioAssay (NCI)
Where “and” joins values, the source holds several entries; their conditions need not be identical. Identical values can stand only once.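 All cell lines were grown in 96-well plates and treated with compound for 48 hours. Here, GI50 denotes the concentration required for 50% inhibition of growth. TGI: total growth inhibition.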

What was measured:
Test in all cases: NCI-60 cell line screen, 48 h
T-47D breast = test system: T-47D breast
NCI-H226 lung = test system: NCI-H226 lung
A549 NSCLC = test system: A549 NSCLC
KM12 colon = test system: KM12 colon
SK-MEL-28 melanoma = test system: SK-MEL-28 melanoma
OVCAR-3 ovarian = test system: OVCAR-3 ovarian
HS 578T breast = test system: HS 578T breast
OVCAR-8 ovarian = test system: OVCAR-8 ovarian
UACC-257 melanoma = test system: UACC-257 melanoma
HT29 colon = test system: HT29 colon

| Compound | TGI (T-47D breast) [µM] | GI50 (NCI-H226 lung) | TGI (NCI-H226 lung) | GI50 (A549 NSCLC) | TGI (A549 NSCLC) | GI50 (KM12 colon) | GI50 (SK-MEL-28 melanoma) | TGI (SK-MEL-28 melanoma) | GI50 (OVCAR-3 ovarian) | TGI (HS 578T breast) | GI50 (OVCAR-8 ovarian) | TGI (OVCAR-8 ovarian) | TGI (UACC-257 melanoma) | GI50 (HT29 colon) | TGI (HT29 colon) | GI50 (T-47D breast) | TGI (KM12 colon) [µM] | TGI (OVCAR-3 ovarian) | GI50 (HS 578T breast) | GI50 (UACC-257 melanoma) |
| --- | --- | --- | --- | --- | --- | --- | --- | --- | --- | --- | --- | --- | --- | --- | --- | --- | --- | --- | --- | --- |
| O=c1cc(-c2cccc(F)c2)[nH]c2cc3c(cc12)OCO3 | > 100 | 0.951 µM and 0.0963 µM | 9.77 µM and 1.49 µM | 0.498 µM | 21.9 µM and 40.9 µM | 0.332 µM | 0.359 µM | 75 µM and > 72.4 µM | 0.291 µM | 0.181 µM | 0.286 µM | 5.02 µM and 1.55 µM | > 100 µM | 0.69 µM and 0.172 µM | 3.23 µM and 0.705 µM | – | – | – | – | – |
| C=CC(=O)N[C@H]1C=C(C)c2c(-c3cnc4ccccc4c3)c3c(N)ncnc3n2C1 | > 100 | 8.85 µM | > 68.1 µM | 11.6 µM | > 67 µM | 19.5 µM | 19.3 µM | 68.6 µM | 8.27 µM | 46.6 µM | 16.7 µM | > 100 µM | > 80.4 µM | 11 µM | > 100 µM | 2.22 µM | 45.6 | 52.2 µM | 8.14 µM | 13.4 µM |
| CCCCCCCCCCCCCC(=S)NCCCC[C@H](NC(=O)OCc1ccccc1)C(=O)Nc1ccccc1 | > 100 | 5.71 µM | > 100 µM | 6.31 µM | > 100 µM | 4.33 µM | 7.99 µM | > 100 µM | 3.52 µM | > 100 µM | 4.35 µM | > 100 µM | > 100 µM | 5.25 µM | > 100 µM | 4.52 µM | > 100 | > 100 µM | 4.31 µM | 5.38 µM |
| O=C(NNc1nc2c(F)cccc2n2cccc12)c1cnccn1 | > 34.3 | 0.522 µM | 7 µM | 0.466 µM | 36 µM | 0.458 µM | 0.65 µM | 15.7 µM | 0.454 µM | 80.4 µM | 0.414 µM | > 81.6 µM | 8.31 µM | 0.604 µM | 50.3 µM | 0.509 µM | 27.1 | 13.6 µM | 7.05 µM | 1.15 µM |
| Cc1nn(-c2ccc(S(=O)(=O)[O-])cc2)c([O-])c1N=[N+](C)c1ccc(-c2ccc(N=Nc3ccc4c(S(=O)(=O)[O-])cc(S(=O)(=O)[O-])c(N)c4c3[O-])c([O-])c2)cc1[O-].[Cu+2].[Cu+2].[Na+] | > 100 | > 100 µM | > 100 µM | > 100 µM | > 100 µM | > 100 µM | > 100 µM | > 100 µM | > 100 µM | > 100 µM | > 100 µM | > 100 µM | > 100 µM | > 100 µM | > 100 µM | > 100 µM | > 100 | > 100 µM | > 100 µM | > 100 µM |
| Fc1cccc(COc2ccc(Nc3ncncc3C#Cc3ccccc3)cc2Cl)c1 | > 25 | > 25 µM | > 25 µM | > 25 µM | > 25 µM | > 25 µM | > 25 µM | > 25 µM | > 25 µM | > 25 µM | > 25 µM | > 25 µM | > 25 µM | > 25 µM | > 25 µM | 20 µM | > 25 | > 25 µM | > 25 µM | > 25 µM |
| COc1ccc(C(=S)N2CCN(c3cccc(Cl)c3)CC2)cc1 | > 100 | > 100 µM | > 100 µM | > 100 µM | > 100 µM | > 100 µM | > 100 µM | > 100 µM | > 100 µM | > 100 µM | > 100 µM | > 100 µM | > 100 µM | > 100 µM | > 100 µM | 65.8 µM | > 100 | > 100 µM | > 100 µM | > 100 µM |
| CCOc1ccc(S(=O)(=O)/N=C2\C=C(SCC(=O)O)C(=O)c3ccccc32)cc1 | 7.18 | 21.7 µM | 50.6 µM | 12.6 µM | 34.9 µM | 2.8 µM | 4.74 µM | 16.3 µM | 1.88 µM | 6.79 µM | 2.82 µM | 10.3 µM | 39.3 µM | 3.21 µM | 13 µM | 2.72 µM | 10.3 | 12.2 µM | 2.6 µM | 16.1 µM |
| CC(C)(C)c1cc(O)c(O)c(C(C)(C)C)c1 | 5.02 | 6.35 µM | 22.8 µM | 3.49 µM | 12.2 µM | 5.57 µM | 3 µM | 10.7 µM | 1.93 µM | 26.7 µM | 3.48 µM | 16.4 µM | 7.4 µM | 2.9 µM | 6.71 µM | 2.36 µM | 16.9 | 3.38 µM | 3.9 µM | 2.42 µM |
| COc1ccc(-c2nn(-c3cccc(Cl)c3)cc2C2CC(c3ccccc3)=NN2C(C)=O)cc1 (stereo unspecified) | > 100 | 3.86 µM | 30.9 µM | 7.58 µM | > 100 µM | > 100 µM | 6.16 µM | > 100 µM | 5.42 µM | 20.1 µM | 4.75 µM | > 100 µM | > 100 µM | 5.49 µM | > 100 µM | 8.53 µM | > 100 | 45.1 µM | 2.81 µM | 32.1 µM |
| CC(=O)Nc1cccc(-n2c(=O)n(C3CC3)c(=O)c3c(Nc4ccc(I)cc4F)n(C)c(=O)c(C)c32)c1 | > 77 | 4.37 µM and > 4.88 µM | 47.8 µM and > 10 µM | 0.0345 µM and 0.122 µM | > 43.8 µM | 0.0102 µM and 0.0225 µM | < 0.01 µM and 0.0018 µM | – | 8.33 µM and > 10 µM | 43.8 µM and > 10 µM | 4.22 µM and > 6.71 µM | > 49.6 µM | < 0.01 µM and 0.0126 µM | < 0.01 µM and 0.00172 µM | 15.9 µM and > 10 µM | 14.9 µM and > 10 µM | > 53.7 | 60.9 µM and > 10 µM | 4.06 µM and 4.64 µM | < 0.01 µM and 0.00182 µM |
| COC(=O)C1OC(O[C@H]2CCC3(C)C(CCC4(C)C3CC=C3C5CC(C)(C)CCC5(C(=O)O)CC[C@]34C)C2(C)C)C(O)C(OC2OC(CO)C(O)C(O)C2O)C1O (stereo partly specified) | 17.2 | 6.18 µM | 12.2 µM | 7.22 µM | 19.2 µM | 8.83 µM | 10.2 µM | 24.1 µM | 13.9 µM | 21.6 µM | 9.96 µM | 27.6 µM | 16.1 µM | 12.4 µM | > 33.3 µM | 8.16 µM | 28.9 | > 33.3 µM | 8.77 µM | 6.89 µM |
| COc1cc2ncn(-c3cc(OCc4ccccc4Cl)c(C(N)=O)s3)c2cc1OC | > 25 | 0.801 µM | > 25 µM | 0.29 µM | > 10.8 µM | 0.0806 µM | 1.46 µM | > 25 µM | 0.0867 µM | 5.77 µM | 0.23 µM | > 20.7 µM | > 25 µM | 0.0921 µM | > 25 µM | 3.78 µM | > 11.8 | 1.99 µM | 0.609 µM | – |
| CC(C)(C)OC(=O)NC(Cc1ccccc1)C(=O)OCN1C(=O)C2C3C=CC(C2C1=O)C1C2C(=O)N(COC(=O)C(Cc4ccccc4)NC(=O)OC(C)(C)C)C(=O)C2C31 (stereo unspecified) | > 100 | – | > 96.4 µM | – | > 73.8 µM | – | – | > 100 µM | – | 54.3 µM | – | > 100 µM | > 100 µM | – | > 100 µM | – | > 100 | > 100 µM | – | – |
| COC1(C(=O)N2Cc3nc(Cl)nc(N[C@H](C)c4cc(N)cc(C(F)(F)F)c4)c3C2)CCOCC1 | 83.5 | 18.2 µM | 72.2 µM | 21.1 µM | > 100 µM | 13.6 µM | 16.2 µM | 30.9 µM | 16.3 µM | 80.3 µM | 23.1 µM | > 88.5 µM | 37.3 µM | 18 µM | 36.6 µM | 20.8 µM | 54.3 | 49 µM | 17.7 µM | 17.2 µM |
| Cc1nn(-c2ccc(F)cc2)c2ncnc(Nc3ccc(NC(=O)Nc4ccc(Cl)c(C(F)(F)F)c4)cc3)c12 | 5.27 | 2.31 µM | 5.99 µM | 1.8 µM | 4.26 µM | 2.66 µM | 2.18 µM | 5.68 µM | 2.06 µM | 9.47 µM | 2.87 µM | 10 µM | 5.99 µM | 2.76 µM | 9.82 µM | 1.73 µM | 10.9 | 5.79 µM | 2.66 µM | 2.25 µM |
| Cc1cc2nc3c4cc(Cl)ccc4n(CCN(C)C)c3nc2cc1C | 16.6 | 1.98 µM | 4.24 µM | 1.51 µM | 4.17 µM | 1.55 µM | 2 µM | 3.53 µM | 1.92 µM | 6.99 µM | 1.4 µM | 6.33 µM | 3.59 µM | 1.13 µM | 3.66 µM | 2.98 µM | 3.17 | 4.76 µM | 2.35 µM | 1.76 µM |
| CNC(=O)c1ccccc1CC1(O)c2ccccc2Oc2ccccc21 | > 100 | 11.3 µM | 34.8 µM | 16.5 µM | > 100 µM | 8.15 µM | 23.2 µM | > 100 µM | – | 57.1 µM | 29.1 µM | > 100 µM | > 100 µM | 9.73 µM | 51.1 µM | 21.5 µM | 44.6 | – | 16.6 µM | 33.8 µM |
